Several values for one entry are separate records, joined by “and”; a condition that tells them apart may be missing. Equal values may be shown once.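 Tested at 5 concentrations; 48 h exposure; 96-well plates; endpoints linearly interpolated, else capped at highest concentration. Abbreviation: GI50, concentration required for 50% inhibition of growth. TGI: concentration producing complete growth inhibition.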
Legend:
Test in all cases: NCI tumour cell line growth inhibition, 48 h
DLD-1 colon = system: DLD-1 colon
HCC-2998 colon = system: HCC-2998 colon
HL-60(TB) leukemia = system: HL-60(TB) leukemia
HOP-92 NSCLC = system: HOP-92 NSCLC
M14 melanoma = system: M14 melanoma
M19-MEL melanoma = system: M19-MEL melanoma
SF-295 CNS = system: SF-295 CNS
SK-MEL-28 melanoma = system: SK-MEL-28 melanoma
EKVX NSCLC = system: EKVX NSCLC
OVCAR-8 ovarian = system: OVCAR-8 ovarian

SMILES | TGI (DLD-1 colon) | TGI (HCC-2998 colon) | TGI (HL-60(TB) leukemia) | TGI (HOP-92 NSCLC) | TGI (M14 melanoma) | TGI (M19-MEL melanoma) | TGI (SF-295 CNS) | TGI (SK-MEL-28 melanoma) | TGI (EKVX NSCLC) | GI50 (HCC-2998 colon) | GI50 (HL-60(TB) leukemia) | GI50 (M14 melanoma) | GI50 (OVCAR-8 ovarian) | GI50 (SF-295 CNS) | GI50 (SK-MEL-28 melanoma) | TGI (OVCAR-8 ovarian) | GI50 (DLD-1 colon) | GI50 (EKVX NSCLC) | GI50 (HOP-92 NSCLC) | GI50 (M19-MEL melanoma)
O=C(CC1=Nc2nnc(-c3nnc4n3C(=O)C(CC(=O)C3CC3)=N4)n2C1=O)C1CC1 | > 100 µM | > 100 µM | > 100 µM | > 100 µM | > 100 µM | > 100 µM | > 100 µM | > 100 µM |  |  |  |  |  |  |  |  |  |  |  | 
Nc1nc(=S)c2[nH]cnc2[nH]1 | 202 µM | 6.93 µM and 16.7 µM and 4.98 µM | 9.38 µM and 17.5 µM and 2.37 µM | 4.44 µM and 26.8 µM and 32.4 µM |  | 205 µM |  | 28.8 µM and 162 µM | > 100 µM and 143 µM and > 250 µM | 0.382 µM and 1.19 µM | 0.894 µM | 0.413 µM and 0.677 µM | 0.374 µM and 0.432 µM and 0.91 µM | 0.209 µM and 1.24 µM | 1.94 µM and 6.07 µM |  |  |  |  | 
OCC(O)C(O)C(O)C(O)c1nn[nH]n1 (stereo not drawn) | > 100 µM |  | > 100 µM | > 100 µM | > 100 µM | > 100 µM | > 100 µM |  | > 100 µM |  |  |  |  |  |  | > 100 µM |  |  |  | 
NNC(=O)N/N=C1\CN(c2ccc(Cl)cc2Cl)C(=O)C(=O)C1c1nc2ccccc2o1 (stereo not drawn) | > 100 µM | > 100 µM |  | > 100 µM | > 100 µM | > 100 µM |  | > 100 µM | > 100 µM |  |  |  |  |  |  | > 100 µM |  |  |  | 
COc1ccc(C(=O)O/N=C2/CCCCC2CN(C)C)cc1 (stereo not drawn) | > 100 µM | > 100 µM | > 100 µM | > 100 µM | > 100 µM | > 100 µM | > 100 µM | > 100 µM | > 100 µM |  |  |  |  |  |  | > 100 µM |  |  |  | 
COc1cc(CCc2ccc(OC(C)=O)cc2)cc(OC)c1OC | > 100 µM |  | > 100 µM | > 100 µM | > 100 µM | > 100 µM | > 100 µM | > 100 µM | > 100 µM |  |  |  |  |  |  | > 100 µM |  |  |  | 
O=C(/C(=C/c1ccc(O)cc1)c1ccccc1)c1ccccc1 | 31 µM | 32 µM | 31.6 µM | 18.3 µM | 30.9 µM | 32.4 µM | 33.4 µM | 31.9 µM | 45.8 µM |  |  |  |  |  |  | 60 µM |  |  |  | 
COCC1N=C(c2cc(OC)c(OC)c(OC)c2-c2cc3c(cc2[C@H](C)O)OCO3)O[C@H]1c1ccccc1 (stereo partly drawn) | > 100 µM | > 100 µM | > 10 µM | 86.4 µM | > 100 µM | > 100 µM | > 100 µM | > 100 µM | > 100 µM |  |  |  |  |  |  | > 100 µM |  |  |  | 
Nc1nc(=S)[nH]c(C(=O)Nc2nccs2)c1-c1ccccc1 | > 100 µM | > 100 µM | > 100 µM | > 100 µM | > 100 µM | > 100 µM | > 100 µM | > 100 µM | > 100 µM |  |  |  |  |  |  | > 100 µM |  |  |  | 
O=c1[nH]c2ccc([N+](=O)[O-])cc2nc1/C(=N/Nc1ccccc1)C(O)c1ccco1 (stereo not drawn) | > 100 µM | > 100 µM | > 100 µM | > 100 µM | > 100 µM | > 100 µM | > 100 µM | > 100 µM | > 100 µM |  |  |  |  |  |  | > 100 µM |  |  |  | 
Nc1ccc(C(=O)/C=C/c2ccccc2O)cc1 | > 100 µM | > 100 µM | > 100 µM |  | > 100 µM | > 100 µM | > 100 µM | > 100 µM | > 100 µM |  |  |  |  |  |  | > 100 µM |  |  |  | 
[Cl-].[Gd+3].[O-]/N=C(\c1ccccc1)c1ccccn1.[O-]/N=C(\c1ccccc1)c1ccccn1.[O-]/N=C(\c1ccccc1)c1ccccn1 | > 100 µM | > 100 µM | > 100 µM | > 100 µM | > 100 µM | > 100 µM | > 100 µM | > 100 µM | > 100 µM | 30.7 µM | 11.7 µM | 51.4 µM | 34.3 µM | 36.6 µM | 61.6 µM | > 100 µM | 39.9 µM | 42.7 µM | > 100 µM | 52.7 µM
C/C(CC(=O)Nc1cccc([N+](=O)[O-])c1)=N\NC(=O)C[n+]1ccccc1 | > 100 µM | > 100 µM | > 100 µM | > 100 µM | > 100 µM | > 100 µM | > 100 µM | > 100 µM | > 100 µM |  |  |  |  |  |  | > 100 µM |  |  |  | 
O=NN(CCCl)C(=O)NC1CCCCC1 | 39.2 µM and 98.6 µM and 86.2 µM | 123 µM and 101 µM | 69.9 µM and > 80.6 µM and 83.8 µM | 48.7 µM and 99.1 µM and 74.7 µM | 33 µM and 127 µM and 82.8 µM | 81.5 µM and 123 µM and 163 µM | 118 µM | 46.5 µM and 144 µM and 99.2 µM | 160 µM and 224 µM | 34.5 µM and 64.6 µM | 41.5 µM and 41 µM | 16.8 µM and 56.8 µM | 19.2 µM and 70.8 µM | 91.7 µM | 24.1 µM and 66.1 µM | 42 µM and 208 µM and 215 µM | 18.4 µM and 42.2 µM | 92.3 µM | 23.6 µM and 42.6 µM | 27.4 µM and 60.2 µM
CCCCCCCCCCCCCCCC(=O)OCC1OC(n2cc(F)c(=O)[nH]c2=O)C(NC(=O)N(CCCl)N=O)C(O)C1O (stereo not drawn) | 12.5 µM | 11.3 µM | 7.69 µM | 11.6 µM | 11.7 µM | 9.91 µM | 6.03 µM | 7.96 µM | 7.18 µM |  |  |  |  |  |  | 9.69 µM |  |  |  | 
COC(=O)CC1CC2(C(=O)OC)c3[nH]c4ccccc4c3CCN2C1=O (stereo not drawn) | > 100 µM | > 100 µM | > 100 µM | > 100 µM | > 100 µM | > 100 µM | > 100 µM | > 100 µM | > 100 µM |  |  |  |  |  |  | > 100 µM |  |  |  | 
COc1ccc2c(c1)[n+](=O)c(C(C)=O)c(C)n2[O-] | > 100 µM | > 100 µM | > 100 µM | > 100 µM | > 100 µM | > 100 µM | > 100 µM | > 100 µM | > 100 µM |  |  |  |  |  |  | > 100 µM |  |  |  | 
COC(=O)C1CCC(=O)N1/C(C)=N/NC(=O)Nc1ccc(Cl)c(Cl)c1 (stereo not drawn) | > 100 µM | > 100 µM | > 100 µM | > 100 µM | > 100 µM | > 100 µM | > 100 µM | > 100 µM | > 100 µM |  |  |  |  |  |  | > 100 µM |  |  |  | 
CN(C)c1ccc(N=C2C=CC(=C(C#N)C#N)c3ccccc32)cc1 | 16.1 µM | 0.63 µM | 0.391 µM | 1.06 µM | 8.79 µM | 5.8 µM | 14.9 µM | 20.5 µM | 19.1 µM |  |  |  |  |  |  | 1.75 µM |  |  |  | 
N#CCCN(CCC#N)c1ccc(C=Nc2ccc(F)cc2)cc1 | > 100 µM | > 100 µM | > 100 µM | > 100 µM | > 100 µM | > 44.5 µM | > 100 µM | > 100 µM | > 100 µM |  |  |  |  |  |  | > 100 µM |  |  |  | 
CC1=CCN(c2ccccn2)OC1c1ccccc1 (stereo not drawn) | > 100 µM | > 100 µM | > 100 µM |  | > 100 µM | > 100 µM | > 100 µM | > 100 µM | > 100 µM |  |  |  |  |  |  | > 100 µM |  |  |  | 
CCOc1ccccc1NC(=O)C1=C(C)NC(C)=C(C(=O)Nc2ccccc2OCC)C1c1ccc([N+](=O)[O-])cc1 | > 100 µM | > 100 µM | > 100 µM | > 100 µM | > 100 µM | > 100 µM | > 100 µM | > 100 µM | > 100 µM |  |  |  |  |  |  |  |  |  |  | 

— PubChem BioAssay (NCI)
